The values below come from patent US20030077768A1, “Use of xylene monooxygenase for the oxidation of substituted polycyclic aromatic compounds” (priority 2001, published 2003).

Structures are written as SMILES.

The test system of data set [1] is ASU1 xylene monooxygenase. The data set can be described thus: Oxidation of 2,6-DMN by Escherichia coli recombinant with cloned ASU1 xylene monooxygenase genes (Clone 4a). Type of data set: cell-based, Sphingomonas strain ASU1. The conditions noted are these: E. coli Clone 4a; M9 medium; 24 mg 2,6-DMN in FC-75 carrier phase; 37° C.; HPLC and GC/MS; metabolites 6-M-2-HMN, 6-M-2-NA, 2,6-NDC. On the procedure: (§1) HPLC system used was a Hewlett Packard 1100 series with a photo diode array detector and LC/MSD-ESI Negative ion. Column used was Hewlett Packard part #880975-902 Zorbax® SB-C18 (4.6×12.5 mm, 5 micron), purchased from Agilient Technologies (Foster City, Calif.). The column temperature was controlled at 30° C. Mobile phase was […] ammonium acetate [20 mL 1 M ammonium acetate in 1800 mL water (solvent-2=S-2)] and acetonitrile (Solvent-1=S-1). The gradient used was 0-3 min 10% S-1 and 90% S-2, gradient was increased to 100% S-1 in 33 min, and again reduced to 10% S-1 and 90% S-2 in 3 min. Flow rate used for the mobile phase was 0.9 mL/min. 100 μL samples were injected, 230 nm wavelength was used for detection of the intermediates of 2,6-dimethylnaphthalene. Intermediates were prepared by as follows, as intermediates needed were not available in the market. Intermediates prepared were 6-methyl-2-napthoic acid, 6-methyl-2-hydroxymethylnaphthalene, and 2,6-Bis(hydroxymethyl)naphthalene. The retention time and diode array scans of the intermediates matched with the prepared standards. The mass spectrometer fragmentation pattern of the 6-methyl-2-napthoic acid in the sample matched that of the standards prepared.
(§2) GC/MS was also used to analyze the samples. […]
(§3) The conversion of 2,6-DMN to 2,6-NDC was monitored by reverse phase HPLC. […]

In data set [2] the test system is Sphingomonas strain ASU1. The data set can be described thus: Carbon source utilization (growth on S12 agar) by strain ASU1. Format: cell-based. The conditions noted are these: compound as sole source of carbon and energy, 28° C., listed as 2,6-DMN. The procedure: S12 agar was used to isolate bacteria from liquid enrichment cultures that grow on 2,6-DMN and to test isolates for growth with various sources of carbon and energy. S12 agar was prepared by adding 1.5% Noble agar (DIFCO) to S12 medium.
Since 2,6-DMN has low aqueous solubility, bacteria growing in S12 medium were supplied with 2,6-DMN by adding a few flakes of the compound directly to the culture. Bacteria growing on S12 agar were supplied with naphthalene, 2-methylnapthalene or 2,6-DMN by placing a few flakes of the compound on the interior of the petri dish lid. All petri dishes were sealed with parafilm and incubated with the lid on the bottom.
Bacteria that grow on 2,6-DMN were isolated from an enrichment culture. The enrichment culture was established by inoculating 0.1 mL of activated sludge into 10 mL of S12 medium in a 125 mL screw cap Erlenmeyer flask. The activated sludge was obtained from a DuPont wastewater treatment facility. The enrichment culture was supplemented with adding yeast extract (0.001% final concentration) by adding a few flakes of 2,6-DMN directly to the culture medium. The enrichment culture was incubated at 28° C. with reciprocal shaking. The culture was diluted every 4 to 7 d by replacing 9 mL of the culture with the same volume of S12 medium with 0.001% yeast extract and a few additional flakes of 2,6-DMN. […]

A short description of data set [3]: Aqueous solubility (statement). Type of data set: physicochemical.
For data set [4], the target named is T1, pWWO xylene monooxygenase (Pseudomonas putida, UniProt P21395).
T1 construct: A fragment of pWWO DNA that contained xylM and xylA was cloned into a small, multicopy plasmid; expressed in transfected cells; host or cells: Escherichia coli TOP10 carrying pCR2.1-TOPO with the 2.4 kb pWWO xylM-xylA PCR fragment from strain ATCC 33015 (Clone 6f)
The data set can be described thus: Oxidation of 2,6-DMN by Escherichia coli recombinant with cloned pWWO xylene monooxygenase genes (Clone 6f). Format: cell-based. The settings on record: E. coli Clone 6f; M9 medium; 24 mg 2,6-DMN in FC-75 carrier phase; 37° C.; HPLC and GC/MS; metabolites 6-M-2-HMN, 6-M-2-NA, 2,6-HMN. The procedure: as §1, §2, §3

T1 sequence (P21395 whole entry, the tested form may be a part): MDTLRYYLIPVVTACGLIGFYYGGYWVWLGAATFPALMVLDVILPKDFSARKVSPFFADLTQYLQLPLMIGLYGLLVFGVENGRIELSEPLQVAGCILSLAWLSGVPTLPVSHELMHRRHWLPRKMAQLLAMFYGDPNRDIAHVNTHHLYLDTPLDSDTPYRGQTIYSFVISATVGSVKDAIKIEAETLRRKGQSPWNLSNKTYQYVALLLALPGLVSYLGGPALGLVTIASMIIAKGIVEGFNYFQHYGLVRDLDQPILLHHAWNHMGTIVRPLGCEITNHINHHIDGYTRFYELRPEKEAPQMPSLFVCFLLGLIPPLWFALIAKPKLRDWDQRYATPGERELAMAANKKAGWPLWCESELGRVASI

For the compound `Cc1ccc2cc(C)ccc2c1` [2,6-dimethylnaphthalene, 2,6-Dimethylnaphthalene], in data set [1], the “Substrate for the ASU1 xylene monooxygenase (oxidation by Clone 4a)” value is on record as “substrate”. For the same compound, in data set [2], the “Growth on Carbon Source” value is recorded as “able to grow”. The aqueous solubility entry in data set [3] is “low”. The “Substrate for the pWWO xylene monooxygenase (oxidation by Clone 6f)” value in data set [4] is “substrate”.
